In the supplement of paper PMC10307832:

Tests used:
Experiment in all cases: relative viability (nuclei count vs DMSO), 5 days (fraction); higher = more cells survive
[1] = compound: CN(C)CC1=CC(=CC=C1)N=C(C2=CC=CC=C2)C3=C(NC4=C3C=CC(=C4)C(=O)N(C)C)O + Cc1cc(Nc2cc(N3CCN(C)CC3)nc(Sc3ccc(NC(=O)C4CC4)cc3)n2)n[nH]1 [Tozasertib] (partner 0.1 µM)
Method in brief: (§1)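 Lung cancer cell lines, seeded in 1536-well plates, were treated the following day by pin tool with a single drug or with five library-drug doses (not always all listed) in √10 steps on top of a fixed anchor-drug dose. Cells were fixed and nuclei stained in one step after 5 days, and nuclei were counted. Relative viability is the nuclei count for treated wells divided by that for vehicle wells, reported as medians of duplicate plates.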

[2] = compound: CN(C)CC1=CC(=CC=C1)N=C(C2=CC=CC=C2)C3=C(NC4=C3C=CC(=C4)C(=O)N(C)C)O + Cc1nc(Nc2ncc(C(=O)Nc3c(C)cccc3Cl)s2)cc(N2CCN(CCO)CC2)n1 [Dasatinib] (partner 0.075 µM)
Method in brief: as §1

[3] = compound: CN(C)CC1=CC(=CC=C1)N=C(C2=CC=CC=C2)C3=C(NC4=C3C=CC(=C4)C(=O)N(C)C)O + CCNC(=O)c1noc(-c2cc(C(C)C)c(O)cc2O)c1-c1ccc(CN2CCOCC2)cc1 [Luminespib] (partner 0.01 µM)
Method in brief: as §1

[4] = compound: CN(C)CC1=CC(=CC=C1)N=C(C2=CC=CC=C2)C3=C(NC4=C3C=CC(=C4)C(=O)N(C)C)O + N=C(N)NC(=N)NCCc1ccccc1 [Phenformin] (partner 250 µM)
Method in brief: as §1

[5] = compound: CN(C)CC1=CC(=CC=C1)N=C(C2=CC=CC=C2)C3=C(NC4=C3C=CC(=C4)C(=O)N(C)C)O + COc1cccc2cc(-c3nc([C@H]4CC[C@H](C(=O)O)CC4)n4ncnc(N)c34)[nH]c12 [OSI-027] (partner 0.5 µM)
Method in brief: as §1

[6] = compound: CN(C)CC1=CC(=CC=C1)N=C(C2=CC=CC=C2)C3=C(NC4=C3C=CC(=C4)C(=O)N(C)C)O + COc1cc2c(Oc3ccc(NC(=O)C4(C(=O)Nc5ccc(F)cc5)CC4)cc3F)ccnc2cc1OCCCN1CCOCC1 [Foretinib] (partner 0.25 µM)
Method in brief: as §1

[7] = compound: CN(C)CC1=CC(=CC=C1)N=C(C2=CC=CC=C2)C3=C(NC4=C3C=CC(=C4)C(=O)N(C)C)O
Method in brief: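 A plate was accepted only when its control CV was below 25% and the cells had doubled at least once. Viability is defined from nuclear counts as treated wells divided by vehicle wells, with the median taken across plates. That median covers lung cancer cell lines grown in 1536-well plates, dosed by pinning at five √10-spaced library-drug concentrations, and counted in MetaXpress from 4× Hoechst images after 5 days.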

[8] = compound: CN(C)CC1=CC(=CC=C1)N=C(C2=CC=CC=C2)C3=C(NC4=C3C=CC(=C4)C(=O)N(C)C)O + O=C(c1cc(Cc2n[nH]c(=O)c3ccccc23)ccc1F)N1CCN(C(=O)C2CC2)CC1 [Olaparib] (partner 8 µM)
Method in brief: as §1

[9] = compound: CN(C)CC1=CC(=CC=C1)N=C(C2=CC=CC=C2)C3=C(NC4=C3C=CC(=C4)C(=O)N(C)C)O + NC(=O)Nc1cc(-c2cccc(F)c2)sc1C(=O)N[C@H]1CCCNC1 [AZD7762] (partner 0.2 µM)
Method in brief: as §1

[10] = compound: CN(C)CC1=CC(=CC=C1)N=C(C2=CC=CC=C2)C3=C(NC4=C3C=CC(=C4)C(=O)N(C)C)O + Nc1ncn([C@H]2C[C@H](O)[C@@H](CO)O2)c(=O)n1 [Decitabine] (partner 2 µM)
Method in brief: as §1

[11] = compound: CN(C)CC1=CC(=CC=C1)N=C(C2=CC=CC=C2)C3=C(NC4=C3C=CC(=C4)C(=O)N(C)C)O + Nc1nc2[nH]cc(CCc3ccc(C(=O)N[C@@H](CCC(=O)O)C(=O)O)cc3)c2c(=O)[nH]1 [Pemetrexed] (partner 0.2 µM)
Method in brief: as §1

[12] = compound: CN(C)CC1=CC(=CC=C1)N=C(C2=CC=CC=C2)C3=C(NC4=C3C=CC(=C4)C(=O)N(C)C)O + CC(=O)Nc1cccc(-n2c(=O)n(C3CC3)c(=O)c3c(Nc4ccc(I)cc4F)n(C)c(=O)c(C)c32)c1 [Trametinib] (partner 0.02 µM)
Method in brief: as §1

[13] = compound: CN(C)CC1=CC(=CC=C1)N=C(C2=CC=CC=C2)C3=C(NC4=C3C=CC(=C4)C(=O)N(C)C)O + O=C(CCCCCCC(=O)Nc1ccccc1)NO [Vorinostat] (partner 1 µM)
Method in brief: as §1

[14] = compound: CN(C)CC1=CC(=CC=C1)N=C(C2=CC=CC=C2)C3=C(NC4=C3C=CC(=C4)C(=O)N(C)C)O + CC(=O)c1c(C)c2cnc(Nc3ccc(N4CCNCC4)cn3)nc2n(C2CCCC2)c1=O [Palbociclib] (partner 0.5 µM)
Method in brief: as §1

NCI-H1623 was tested, and the relative viability ([1]; first compound 0.08 µM) was 0.428, the relative viability ([1]; first compound 0.253 µM) was 0.519 and the relative viability ([1]; first compound 2.53 µM) was 0.412. The relative viability ([1]; first compound 8 µM) was 0.464, the relative viability ([2]; first compound 0.08 µM) was 0.552 and the relative viability ([2]; first compound 0.253 µM) was 0.632. It also gave a relative viability ([2]; first compound 2.53 µM) of 0.593, a relative viability ([2]; first compound 8 µM) of 0.499 and a relative viability ([3]; first compound 0.08 µM) of 0.416. For the same cell line, the relative viability ([3]; first compound 0.253 µM) was 0.652, the relative viability ([3]; first compound 2.53 µM) was 0.445 and the relative viability ([3]; first compound 8 µM) was 0.504. The relative viability ([4]; first compound 0.08 µM) was 0.544, the relative viability ([4]; first compound 0.253 µM) was 0.69 and the relative viability ([4]; first compound 2.53 µM) was 0.551. The relative viability ([4]; first compound 8 µM) was 0.514, the relative viability ([5]; first compound 0.08 µM) was 0.428 and the relative viability ([5]; first compound 0.253 µM) was 0.449. The relative viability ([5]; first compound 0.8 µM) was 0.378, the relative viability ([5]; first compound 2.53 µM) was 0.452 and the relative viability ([5]; first compound 8 µM) was 0.514. It also gave a relative viability ([6]; first compound 0.08 µM) of 0.825, a relative viability ([6]; first compound 0.253 µM) of 1.17 and a relative viability ([6]; first compound 0.8 µM) of 0.642. For the same cell line, the relative viability ([6]; first compound 2.53 µM) was 0.894, the relative viability ([6]; first compound 8 µM) was 0.854 and the relative viability ([7]; 0.08 µM) was 1.09. It also gave a relative viability ([7]; 0.253 µM) of 0.97, a relative viability ([7]; 0.8 µM) of 0.729 and a relative viability ([7]; 2.53 µM) of 1.04. The relative viability ([7]; 8 µM) was 1.09.
With NCI-H2342 the relative viability ([1]; first compound 0.08 µM) was 0.497, the relative viability ([1]; first compound 0.253 µM) was 0.601 and the relative viability ([1]; first compound 0.8 µM) was 0.549. It also gave a relative viability ([1]; first compound 2.53 µM) of 0.45, a relative viability ([1]; first compound 8 µM) of 0.613 and a relative viability ([2]; first compound 0.08 µM) of 0.281. For the same cell line, the relative viability ([2]; first compound 0.253 µM) was 0.399, the relative viability ([2]; first compound 0.8 µM) was 0.287 and the relative viability ([2]; first compound 2.53 µM) was 0.329. The relative viability ([2]; first compound 8 µM) was 0.338, the relative viability ([3]; first compound 0.08 µM) was 0.775 and the relative viability ([3]; first compound 0.253 µM) was 0.597. For the same cell line, the relative viability ([3]; first compound 0.8 µM) was 0.71, the relative viability ([3]; first compound 2.53 µM) was 0.771 and the relative viability ([3]; first compound 8 µM) was 0.871. The relative viability ([8]; first compound 0.08 µM) was 0.453, the relative viability ([8]; first compound 0.253 µM) was 0.454 and the relative viability ([8]; first compound 0.8 µM) was 0.506. For the same cell line, the relative viability ([8]; first compound 2.53 µM) was 0.476, the relative viability ([8]; first compound 8 µM) was 0.561 and the relative viability ([9]; first compound 0.08 µM) was 0.428. The relative viability ([9]; first compound 0.253 µM) was 0.582, the relative viability ([9]; first compound 0.8 µM) was 0.471 and the relative viability ([9]; first compound 2.53 µM) was 0.461. The relative viability ([9]; first compound 8 µM) was 0.472, the relative viability ([4]; first compound 0.08 µM) was 0.572 and the relative viability ([4]; first compound 0.253 µM) was 0.685. It also gave a relative viability ([4]; first compound 0.8 µM) of 0.574, a relative viability ([4]; first compound 2.53 µM) of 0.647 and a relative viability ([4]; first compound 8 µM) of 0.668. It also gave a relative viability ([10]; first compound 0.08 µM) of 0.728, a relative viability ([10]; first compound 0.253 µM) of 0.74 and a relative viability ([10]; first compound 0.8 µM) of 0.817. It also gave a relative viability ([10]; first compound 2.53 µM) of 0.798, a relative viability ([10]; first compound 8 µM) of 0.848 and a relative viability ([11]; first compound 0.08 µM) of 0.763. For the same cell line, the relative viability ([11]; first compound 0.253 µM) was 0.762, the relative viability ([11]; first compound 0.8 µM) was 0.829 and the relative viability ([11]; first compound 2.53 µM) was 0.836. It also gave a relative viability ([11]; first compound 8 µM) of 0.778, a relative viability ([5]; first compound 0.08 µM) of 0.63 and a relative viability ([5]; first compound 0.253 µM) of 0.535. The relative viability ([5]; first compound 0.8 µM) was 0.621, the relative viability ([5]; first compound 2.53 µM) was 0.708 and the relative viability ([5]; first compound 8 µM) was 0.65. It also gave a relative viability ([12]; first compound 0.08 µM) of 0.894, a relative viability ([12]; first compound 0.253 µM) of 0.751 and a relative viability ([12]; first compound 0.8 µM) of 0.727. It also gave a relative viability ([12]; first compound 2.53 µM) of 0.906, a relative viability ([12]; first compound 8 µM) of 1.23 and a relative viability ([6]; first compound 0.08 µM) of 1.08. For the same cell line, the relative viability ([6]; first compound 0.253 µM) was 1.06, the relative viability ([6]; first compound 0.8 µM) was 0.979 and the relative viability ([6]; first compound 2.53 µM) was 1.17. It also gave a relative viability ([6]; first compound 8 µM) of 1.05, a relative viability ([13]; first compound 0.08 µM) of 0.728 and a relative viability ([13]; first compound 0.253 µM) of 0.928. It also gave a relative viability ([13]; first compound 0.8 µM) of 0.773, a relative viability ([13]; first compound 2.53 µM) of 0.87 and a relative viability ([13]; first compound 8 µM) of 0.913. For the same cell line, the relative viability ([14]; first compound 0.08 µM) was 0.519, the relative viability ([14]; first compound 0.253 µM) was 0.528 and the relative viability ([14]; first compound 0.8 µM) was 0.549. It also gave a relative viability ([14]; first compound 2.53 µM) of 0.547, a relative viability ([14]; first compound 8 µM) of 0.605 and a relative viability ([7]; 0.08 µM) of 1.02. For the same cell line, the relative viability ([7]; 0.253 µM) was 1.04, the relative viability ([7]; 0.8 µM) was 0.904 and the relative viability ([7]; 2.53 µM) was 1.15. It also gave a relative viability ([7]; 8 µM) of 1.02.
